Tests used:
Hepatitis C virus [1] = experiment: Antiviral activity against HCV genotype 1b infected in human patient assessed as log10 reduction in viral RNA in plasma at 750 mg/kg, bid after 3 days; format: functional, Hepacivirus hominis
Hepatitis C virus [2] = experiment: Antiviral activity against Hepatitis C virus H77 genotype 1a infected in human HuH7 cells assessed as observed antiviral potency after 72 hrs by luciferase reporter gene assay; format: functional, organism-based, Hepacivirus hominis; conditions: genotype 1a H77, Huh-7, 72 h
[3] = Cytotoxicity against human HuH7 cells after 3 days by Cell Titre Glo assay; format: cell-based, Huh-7
Hepatitis C virus [4] = experiment: Antiviral activity against Hepatitis C virus H77 genotype 1a infected in human HuH7 cells assessed as intrinsic antiviral potency after 72 hrs by luciferase reporter gene assay; format: functional, organism-based, Hepacivirus hominis; conditions: genotype 1a H77, Huh-7, 72 h
[5] = Cytotoxicity against human MT4 cells after 5 days by Cell Titre Glo assay; format: cell-based
Hepatitis C virus [6] = experiment: Antiviral activity against Hepatitis C virus Con1 genotype 1b infected in human HuH7 cells after 72 hrs by luciferase reporter gene assay; format: functional, organism-based, Hepacivirus hominis; conditions: isolate Con1, Huh-7, 72 h
[7] = Fraction unbound in cell culture medium at 2 uM at pH 7.4 by equilibrium dialysis method; format: ADME
Hepatitis C virus [8] = experiment: Antiviral activity against HCV genotype 1 infected in human patient assessed as log10 reduction in viral RNA in plasma at 700 mg/kg, bid after 8 days; format: functional, Hepacivirus hominis
[9] = Intrinsic cytotoxicity against human MT4 cells after 5 days by Cell Titre Glo assay; format: cell-based
[10] = Half life in human patient infected with chronic HCV; format: ADME, organism-based; conditions: in vivo
Hepatitis C virus [11] = experiment: Antiviral activity against HCV genotype 1b harboring wild type NS5B polymerase infected in human HuH7-Lunet cells by luciferase reporter gene assay; format: functional, organism-based, Hepacivirus hominis; conditions: Huh-7
Hepatitis C virus [12] = experiment: Antiviral activity against Hepatitis C virus H77 genotype 1a infected in human HuH7 cells assessed as plasma adjusted antiviral potency after 72 hrs by luciferase reporter gene assay; format: functional, organism-based, Hepacivirus hominis; conditions: genotype 1a H77, Huh-7, Plasma
Hepatitis C virus [13] = experiment: Selectivity ratio of EC50 for HCV genotype 1b harboring NS5B polymerase M423T mutant to EC50 for HCV genotype 1b harboring wild type NS5B polymerase; format: functional, Hepacivirus hominis
[14] = Mean residence time in Sprague-Dawley rat at 0.5 mg/kg, iv; format: ADME, organism-based; parameters: dose 0.5 mg/kg, route intravenous; conditions: in vivo
Hepatitis C virus [15] = experiment: Antiviral activity against HCV infected in human patient assessed as log10 reduction in viral RNA in plasma at 500 mg/kg, qd after 3 days; format: functional, Hepacivirus hominis
Hepatitis C virus [16] = experiment: Antiviral activity against HCV genotype 1b harboring NS5B polymerase M423T mutant infected in human HuH7-Lunet cells by luciferase reporter gene assay; format: functional, organism-based, Hepacivirus hominis; conditions: Huh-7
[17] = Mean residence time in Sprague-Dawley rat at 0.4 mg/kg, iv; format: ADME, organism-based; parameters: dose 0.4 mg/kg, route intravenous; conditions: in vivo
[18] = Lipophilicity, log D of the compound by chromatography; format: physicochemical

CC(C)(C)C#Cc1cc(N(C(=O)[C@H]2CC[C@H](C)CC2)[C@H]2CC[C@H](O)CC2)c(C(=O)O)s1 [LOMIBUVIR]
FC (Hepatitis C virus [1]): 3.7
EC50 (Hepatitis C virus [2]): 13 nM
CC50 at 72 h [3]: ≥ 20000 nM
EC50 (Hepatitis C virus [4]): 2.8 nM
CC50 at 120 h [5]: > 20000 nM
EC50 (Hepatitis C virus [6]): 6 nM
fraction unbound at 2 µM [7]: 0.19

CCc1cc(CC[C@]2(C3CCCC3)CC(O)=C(Cc3nc4nc(C)cc(C)n4n3)C(=O)O2)cc(CC)n1 [FILIBUVIR]
FC (Hepatitis C virus [8]): 2.3

CC1=CC[C@H](C(=O)N(c2cc(C#CC(C)(C)C)sc2C(=O)O)[C@H]2CC[C@](O)(CO[C@H]3CCOC3)CC2)CC1 [RADALBUVIR]
EC50 (Hepatitis C virus [2]): 11 nM
CC50 at 120 h [9]: 12100 nM
half-life [10]: 6 h
EC50 (Hepatitis C virus [11]): 6 nM
EC50 (Hepatitis C virus [12]): 128 nM
EC50 (Hepatitis C virus [4]): 2.9 nM
CC50 at 120 h [5]: > 20000 nM
Ratio EC50 (Hepatitis C virus [13]): 2
MRT [14]: 2.7 h
FC (Hepatitis C virus [15]): 3.6
EC50 (Hepatitis C virus [16]): 14 nM

CC(C)(C)C#Cc1cc(N(C(=O)[C@H]2CC[C@H](C)CC2)[C@H]2CC[C@H](Oc3ccc4nccn4n3)CC2)c(C(=O)O)s1
EC50 (Hepatitis C virus [2]): 192 nM
CC50 at 120 h [9]: 133 nM
MRT [17]: 6.2 h
EC50 (Hepatitis C virus [12]): 1130 nM
EC50 (Hepatitis C virus [4]): 1.3 nM
CC50 at 120 h [5]: > 20000 nM
chromatographic logD [18]: 2.4

— ChEMBL document CHEMBL3120092, “Discovery of GS-9669, a thumb site II non-nucleoside inhibitor of NS5B for the treatment of genotype 1 chronic hepatitis C infection” (J Med Chem, 2014)
